# Data reported in patent publication US20070292512A1, “Solid Oral Dosage Form Containing an Enhancer” (priority 2006, published 2007).
# Entries after “also recorded” stand apart in the source; their conditions may differ.
# Legend:
# Caco-2 monolayers [1] = test: 3H-TRH transepithelial transport (Papp) in Caco-2 monolayers; assay type: in vitro ADME; settings: sodium salts at concentrations of Table 1
# Protocol: (§1) Cell Culture: Caco-2 cells were cultured in Dulbecco's Modified Eagles Medium (DMEM) 4.5 g/L glucose supplemented with 1% (v/v) non-essential amino acids; 10% fetal calf serum and 1% penicillin/streptomycin. […] The cells were grown and expanded in standard tissue culture flasks and were passaged once they attained 100% confluence. The Caco-2 cells were then seeded on polycarbonate filter inserts (Costar; 12 mm diameter, 0.4 μm pore size) at a density of 5×10^5 cells/cm^2 and incubated in six well culture plates with a medium change every second day. Confluent monolayers between day 20 and day 30 seeding on filters and at passages 30-40 were used throughout these studies.
# (§2) The transport experiments were performed in Hank's Balanced Salt Solution (HBSS) containing 25 mM N-[2-hydroxyethyl]-piperazine-N′-[2-ethanesulfonic acid] (HEPES) buffer, pH 7.4 at 37° C. Due to variations in solubilities, various concentrations of the different MCFA sodium salts and various apical buffers were used as shown in Table 1. In all cases the basolateral chamber contained regular HBSS+HEPES.
# (§3) After removing the cell culture medium, the monolayers were placed in wells containing pre-warmed HBSS (37° C.); 1 ml apically and 2 ml basolaterally. Monolayers were incubated at 37° C. for 30 minutes. Then at time zero, apical HBSS was replaced with the relevant apical test solution containing the radio-labeled compounds with and without the enhancer compound. […] The plates were placed on an orbital shaker in an incubator (37° C.). […] At each 30-minute interval, each insert was transferred to a new well containing 2 ml fresh pre-warmed HBSS. […] Mean values for ^3H-TRH concentrations were calculated for the apical and basolateral solutions at each time point.
# Caco-2 monolayers [2] = test: TEER in Caco-2 monolayers; assay type: cell-based; settings: sodium salts at concentrations of Table 1, with 3H-TRH, over 2 hours
# Protocol: as §1, §2, §3
# [3] = Closed loop rat model, intraduodenal TRH with enhancer, serum TRH; assay type: in vivo, Male Wistar rats; settings: intraduodenal bolus 500 or 1000 μg TRH with 35 mg enhancer
# Protocol: Male Wistar rats (weight range 250 g-350 g) were anaesthetized with ketamine hydrochloride/acepromazine. […] All intraduodenal dose volumes (for samples and control) were 1 ml/kg. The proximal end of the segment was ligated, and the loop was sprayed with isotonic saline (37° C.) to provide moisture and then replaced in the abdominal cavity avoiding distension. The incision was closed with surgical clips. A group of animals were administered TRH in PBS (100 μg in 0.2 ml) by subcutaneous injection as a reference.
# [4] = Closed-loop rat segment, intraileal USP heparin, APTT response; assay type: in vivo; settings: USP heparin 1000 iu intraileal, sodium caprate 10 and 35 mg
# Text: APTT measurements were taken at various time points.
# anti-factor Xa activity [5] = test: Dog study of oral heparin tablets, anti-factor Xa; assay type: in vivo; settings: IR formulations, equivalent dose of heparin, dogs
# Protocol: Tablets from batches 3, 7 and 15 in Tables 5 and 6 above were dosed orally to groups of five dogs in a single dose crossover study. […] Blood samples for anti-factor Xa analysis were collected from the jugular vein at various time points.
# anti-factor Xa activity [6] = test: Closed-loop rat segment, intraileal USP heparin, anti-factor Xa response; assay type: in vivo; settings: USP heparin 1000 iu
# [7] = dog, in vivo
# Protocol: Beagle dogs (10-15 Kg) were sedated with medetomidine (80 μg/kg) and an endoscope was inserted via the mouth, esophagus, and stomach into the duodenum. The test solutions (10 ml) comprising leuprolide acetate (Mallinckrodt Inc, St. Louis, Mo.) with or without enhancer reconstituted in deionized water were administered intraduodenally via the endoscope. Following removal of the endoscope, sedation was reversed using atipamezole (400 μg/kg). The parenteral reference solutions comprising 1 mg Leuprolide reconstituted in 0.5 ml sterile water were administered intravenously and subcutaneously respectively.
# HDAC4 = HDAC4 (Homo sapiens, UniProt P56524); settings: cited from earlier work
# HDAC6 = settings: cited from earlier work
# [8] = cited from earlier work
# HDAC = settings: compared to romidepsin; cited from earlier work
# in vivo = test: in vivo; design: species or system beagle dogs; settings: beagle, dog
# Protocol: The study was a single dose crossover study using from 2 to 5 dogs. Fasted animals were dosed weekly with an intravenous dose (reference) or one of three experimental romidepsin formulations administered directly into the duodenum via a surgically implanted cannula. In all cases the administered dose was 0.1 mg/kg body weight. Blood samples were obtained at selected time intervals post dosing and plasma was shipped to Japan Clinical Laboratories (JCL) for romidepsin analyses. Upon receipt of bioanalytical data from JCL, the individual animal plasma data were loaded into an Excel spreadsheet (Microsoft® Office Excel 2003) and the following pharmacokinetic parameters were calculated from the concentration-time data for each subject: Cmax, Tmax, T1/2, AUC(0-t) and % Bioavailability (% F). Pharmacokinetic parameters were calculated using macros written for Excel (Usansky et al., PK Functions for Microsoft Excel (1999) available at: www.boomer.org/[…].doc).
# [9] = test system: human tumor xenografts and murine tumors; settings: human tumor xenografts and murine tumors in mouse models; cited from earlier work
# HDAC1 = HDAC1 (Homo sapiens, UniProt Q13547); settings: range stated for each enzyme; cited from earlier work
# Sequence of HDAC1 (Q13547 whole entry): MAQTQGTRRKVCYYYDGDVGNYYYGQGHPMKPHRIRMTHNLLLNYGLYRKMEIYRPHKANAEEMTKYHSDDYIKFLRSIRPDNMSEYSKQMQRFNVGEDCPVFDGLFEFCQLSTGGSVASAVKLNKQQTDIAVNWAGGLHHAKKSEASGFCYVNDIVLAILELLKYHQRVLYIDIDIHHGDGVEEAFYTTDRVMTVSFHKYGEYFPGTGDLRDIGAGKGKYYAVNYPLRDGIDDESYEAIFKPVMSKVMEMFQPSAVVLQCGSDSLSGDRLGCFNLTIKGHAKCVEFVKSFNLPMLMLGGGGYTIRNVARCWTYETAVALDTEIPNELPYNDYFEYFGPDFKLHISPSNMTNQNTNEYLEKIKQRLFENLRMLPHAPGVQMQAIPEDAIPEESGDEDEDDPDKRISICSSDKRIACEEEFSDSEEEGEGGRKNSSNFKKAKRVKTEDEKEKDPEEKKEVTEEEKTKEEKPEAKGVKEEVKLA
# Sequence of HDAC4 (P56524 whole entry, species assumed): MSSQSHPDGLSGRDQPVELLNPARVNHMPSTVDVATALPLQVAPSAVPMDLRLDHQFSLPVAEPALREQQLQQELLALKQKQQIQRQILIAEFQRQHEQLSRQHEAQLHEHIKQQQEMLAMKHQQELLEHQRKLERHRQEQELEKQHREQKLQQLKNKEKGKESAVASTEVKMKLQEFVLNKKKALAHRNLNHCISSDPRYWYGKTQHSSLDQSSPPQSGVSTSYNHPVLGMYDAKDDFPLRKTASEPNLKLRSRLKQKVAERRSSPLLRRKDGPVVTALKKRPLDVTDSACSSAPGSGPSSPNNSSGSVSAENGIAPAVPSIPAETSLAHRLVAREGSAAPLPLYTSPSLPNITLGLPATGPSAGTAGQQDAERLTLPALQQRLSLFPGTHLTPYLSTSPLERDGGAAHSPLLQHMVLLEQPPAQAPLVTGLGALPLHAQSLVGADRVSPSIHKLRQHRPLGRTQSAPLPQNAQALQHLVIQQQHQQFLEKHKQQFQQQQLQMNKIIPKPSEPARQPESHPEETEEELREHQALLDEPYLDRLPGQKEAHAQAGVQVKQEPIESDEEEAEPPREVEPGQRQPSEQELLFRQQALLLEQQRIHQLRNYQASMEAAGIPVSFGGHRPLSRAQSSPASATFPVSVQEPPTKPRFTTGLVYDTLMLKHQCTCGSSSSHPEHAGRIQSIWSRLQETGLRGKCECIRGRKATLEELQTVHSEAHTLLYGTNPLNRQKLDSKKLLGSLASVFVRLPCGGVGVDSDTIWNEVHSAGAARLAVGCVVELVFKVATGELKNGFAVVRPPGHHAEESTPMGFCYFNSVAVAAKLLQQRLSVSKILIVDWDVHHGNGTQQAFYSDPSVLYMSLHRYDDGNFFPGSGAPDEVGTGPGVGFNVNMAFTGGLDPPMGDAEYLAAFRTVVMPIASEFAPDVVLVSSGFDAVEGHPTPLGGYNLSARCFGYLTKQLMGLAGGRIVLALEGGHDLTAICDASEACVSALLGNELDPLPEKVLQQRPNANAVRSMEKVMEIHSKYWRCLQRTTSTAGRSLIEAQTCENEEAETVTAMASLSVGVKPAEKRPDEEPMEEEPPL
structure (smiles),measurement,setting,value
"CCCCCCCCCCCC(=O)[O-].[Na+] [Batch C12, sodium laurate]",Papp for 3H-TRH compared to the control,Caco-2 monolayers [1],considerable increases
same,effect on TEER compared to the control,Caco-2 monolayers [2],some cell damage (reduction in TEER)
CCCCCCCCCCCCCC(=O)[O-].[Na+] [Batch C14],Papp for 3H-TRH compared to the control,Caco-2 monolayers [1],considerable increases
same,effect on TEER compared to the control,Caco-2 monolayers [2],minimal reduction in TEER
CCCCCCCCCCCCCCCCCC(=O)[O-].[Na+] [Batch C18],effect on TEER compared to the control,Caco-2 monolayers [2],minimal reduction in TEER
"CCCCCCCC(=O)[O-].[Na+] [NaC8, sodium caprylate]",serum levels of TRH over the control TRH solution,[3],significantly increases the serum levels of TRH
"CCCCCCCCCC(=O)[O-].[Na+] [NaC10, sodium caprate]",heparin absorption by APTT response vs control heparin solution,[4],significant increase in absorption
same,serum levels of TRH over the control TRH solution,[3],significantly increases the serum levels of TRH
same,Papp for 3H-TRH compared to the control,Caco-2 monolayers [1],considerable increases
same,effect on TEER compared to the control,Caco-2 monolayers [2],minimal reduction in TEER
same,"anti-factor Xa response, NaC10 versus NaC8 enhancer",anti-factor Xa activity [5],larger anti-factor Xa response
same,anti-factor Xa activity relative to control heparin solution,anti-factor Xa activity [6]; enhancer 10 mg dose,significant increase in anti-factor Xa activity
same,anti-factor Xa activity relative to control heparin solution,anti-factor Xa activity [6]; enhancer 35 mg dose,significant increase in anti-factor Xa activity
"CCNC(=O)[C@@H]1CCCN1C(=O)[C@H](CCCNC(=N)N)NC(=O)[C@H](CC(C)C)NC(=O)[C@@H](CC(C)C)NC(=O)[C@H](Cc1ccc(O)cc1)NC(=O)[C@H](CO)NC(=O)[C@H](Cc1c[nH]c2ccccc12)NC(=O)[C@H](Cc1c[nH]cn1)NC(=O)[C@@H]1CCC(=O)N1 [leuprolide, leuprolide acetate]",systemic delivery of leuprolide on coadministration with enhancer,[7],considerable enhancer dose dependent enhancement
same,systemic delivery of leuprolide without enhancer,[7],negligible
C/C=C1\NC(=O)[C@@H](CS)NC(=O)[C@@H](C(C)C)NC(=O)C[C@@H](/C=C/CCS)OC(=O)[C@H](C(C)C)NC1=O [redFK],inhibitory effect against HDAC4,HDAC4; low nanomolar concentrations,relatively weak
same,inhibitory effect against HDAC6,HDAC6; low nanomolar concentrations,relatively weak; also recorded: almost insensitive
same,stability in medium and serum,[8],rapid inactivation
same,inhibiting in vivo HDAC activity,HDAC,less active compared to romidepsin
"C/C=C1\NC(=O)[C@H]2CSSCC/C=C/[C@H](CC(=O)N[C@H](C(C)C)C(=O)N2)OC(=O)[C@H](C(C)C)NC1=O [romidepsin, (1S,4S,10S,16E,21R)-7-[(2Z)-ethylidene]-4,2,1-diisopropyl-2-oxa-12,13-dithia-5,8,20,23-tetraazabicyclo[8.7.6]tricos-16-ene-3,6,9,19,22-pentanone]",times weaker than redFK in inhibiting HDAC4,HDAC4; range stated for each enzyme,17-23 times
same,bioavailability,in vivo,≤ 28%
same,times weaker than redFK in inhibiting HDAC6,HDAC6; range stated for each enzyme,17-23 times
same,stability in medium and serum,[8],more stable than redFK
same,in vivo antitumor activity,[9],in vivo antitumor activity
same,times weaker than redFK in inhibiting HDAC1,HDAC1,17-23 times
